Assay results taken from patent US20220096592A1, “PIC1 VARIANTS WITH IMPROVED SOLUBILITY AND METHODS OF USING THE SAME” (priority 2019, published 2022).

Key:
[1] = test system: purified human neutrophils; test: NETosis assay (immune complex activated serum and H2O2; PicoGreen free DNA, fluorescence microscopy); format: cell-based; conditions: neutrophils stimulated with immune complexes, FIG. 5B third row
Description: NETosis assays with immune complexes were performed as previously described. Briefly, normal human serum was stimulated with ovalbumin-antiovalbumin immune complexes in GVBS^++ for 30 minutes at 37° C. This mixture along with 0.05% H2O2 was then added to purified human neutrophils resuspended in RPMI with or without sarcosine variants (2 mM), allowing NETosis to occur. Quantitation of free DNA released from the neutrophils was performed using PicoGreen. Slides were stained with DAPI (Southern Biotech, Birmingham, Ala.). The following antibodies were used to visualize formation of NETs: • (i) mouse anti-elastase (Invitrogen, Carlsbad, Calif.) as a primary antibody with the secondary goat anti-mouse antibody Alexa Fluor 568 (Novus Biologicals, Centennial, Colo.) and • (ii) rabbit anti-histone H3 (Abcam, Cambridge Mass.) with goat anti-rabbit antibody Alexa Fluor 488 (Novus Biologicals). Fluorescence microscopy using an Olympus BX53 microscope was performed to visualize NETs.
The peptide variants were tested for inhibition of NETosis. In this assay, purified human neutrophils were stimulated with normal human serum activated with ovalbumin-antiovalbumin immune complexes and hydrogen peroxide. Free DNA expressed from the neutrophils was then measured in a PicoGreen assay. […] Direct visualization of neutrophil extracellular trap (NET) formation by fluorescence microscopy was used to confirm the above NETosis results with the 18 variant. Human neutrophils were purified and stimulated on glass slides then stained with DAPI to visualize DNA and probed with anti-neutrophil elastase (αNE) and anti-histone H3 (αhistone), as previously described. […] Fluorescence microscopy visualization of NETs confirmed the findings seen for quantitative measurements of free DNA.

[2] = water, without PEGylation or DMSO
Description: Sarcosine variants and PEG were dissolved in water and the pH was adjusted with NaOH. PA was dissolved in DMSO and then brought up to the final concentration with water resulting in 30% DMSO and pH adjusted. Antibody sensitized sheep erythrocytes (EA), purified C1q and factor B-depleted human sera were purchased from Complement Technology (Tyler, Tex.). Purified myeloperoxidase was purchased from Lee BioSolutions (Maryland Heights, Mo.) and tetramethylbenzidine (TMB) and PicoGreen were purchased from Thermo Fisher (Waltham Mass.).
(PA), peptide derivatives were synthesized with sarcosine residues substituted at all 15 positions. Also included is a peptide in which the vicinal cysteines at positions 9 and 10 (C9,C10) were replaced with a single sarcosine residue.

H2N-IALILEPICCQERAA-dPEG24 (H-IALILEPICCQERAA-dPEG24; cysteine pairing not given here) [PA-dPEG24]
NET formation by fluorescence microscopy [1]: dramatic reduction in NETs
H2O Soluble [2]: No
